Reference: PubChem BioAssay (NCI)
“And” between values parts separate entries of the source, which are not always exact repeats. Equal values may be shown once.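 Values below derive from 48-hour exposures of cells grown in 96-well plates, with endpoints linearly interpolated between the two concentrations bracketing the appropriate inhibition level. GI50: concentration for 50% inhibition of growth. TGI is the concentration that stops growth completely.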

Assays:
Assay in all cases: NCI anticancer screen, dose series, 48 h
BT-549 breast = test system: BT-549 breast
CCRF-CEM leukemia = test system: CCRF-CEM leukemia
IGROV1 ovarian = test system: IGROV1 ovarian
OVCAR-4 ovarian = test system: OVCAR-4 ovarian
RPMI-8226 leukemia = test system: RPMI-8226 leukemia
RXF 393 renal = test system: RXF 393 renal
SF-539 CNS = test system: SF-539 CNS
SK-MEL-2 melanoma = test system: SK-MEL-2 melanoma
SNB-19 CNS = test system: SNB-19 CNS
TK-10 renal = test system: TK-10 renal

| Structure (SMILES) | TGI (BT-549 breast) | TGI (CCRF-CEM leukemia) | TGI (IGROV1 ovarian) | TGI (OVCAR-4 ovarian) | TGI (RPMI-8226 leukemia) | TGI (RXF 393 renal) | TGI (SF-539 CNS) | TGI (SK-MEL-2 melanoma) | TGI (SNB-19 CNS) | TGI (TK-10 renal) | GI50 (BT-549 breast) | GI50 (CCRF-CEM leukemia) | GI50 (IGROV1 ovarian) | GI50 (OVCAR-4 ovarian) | GI50 (RPMI-8226 leukemia) | GI50 (SF-539 CNS) |
| --- | --- | --- | --- | --- | --- | --- | --- | --- | --- | --- | --- | --- | --- | --- | --- | --- |
| O=c1[nH]c(=O)n(C2CC(O)C(CO)O2)cc1I (stereo not given) | > 100 µM | > 100 µM | > 100 µM | > 100 µM | > 100 µM | > 100 µM | > 100 µM | > 100 µM | > 100 µM | > 100 µM |  |  |  |  |  |  |
| CNC(=O)c1ccccc1-[s+]1c2ccccc2c(=O)n1C (stereo not given) | > 100 µM | > 100 µM | > 100 µM | > 100 µM | > 100 µM | > 100 µM | > 100 µM | > 100 µM | > 100 µM | > 100 µM |  |  |  |  |  |  |
| CCOC(=O)c1ccc(N=NN(C)C(=O)C(C)N)cc1 (stereo not given) | > 100 µM | > 100 µM | > 100 µM | > 100 µM | > 100 µM | > 100 µM | > 100 µM | > 100 µM | > 100 µM | > 100 µM |  |  |  |  |  |  |
| C=C(C)[C@@H]1CC[C@]2(C(=O)O)CC[C@]3(C)[C@H](CC[C@@H]4[C@@]5(C)CC(=O)C(C)(C)[C@@H]5CC[C@]43C)[C@@H]12 | > 25 µM | 2.86 µM | > 25 µM | > 25 µM | 11.6 µM | > 25 µM | 14.7 µM | 9.71 µM | > 25 µM | > 25 µM |  |  |  |  |  |  |
| O=c1cc(CNC2CCCC2)[nH]c(=O)[nH]1 | > 100 µM | > 100 µM | > 100 µM | > 100 µM | > 100 µM | > 100 µM | > 100 µM | > 100 µM | > 100 µM | > 100 µM |  |  |  |  |  |  |
| O=C1c2c(F)c(F)c(F)c(F)c2SC2=NCCN12 | 28 µM | > 21.6 µM | 17.7 µM | 8.91 µM | 24.8 µM | 8.89 µM | 30 µM | 6.52 µM | 29 µM | 22.4 µM |  |  |  |  |  |  |
| O=C1NC(N/N=C\C(O)C(O)C(O)CO)=N/C1=C/c1ccccc1 (stereo not given) | > 100 µM and 99.8 µM | > 100 µM | > 100 µM | > 100 µM and 79.8 µM | > 100 µM | > 100 µM | > 100 µM | > 100 µM | > 100 µM | > 100 µM | > 100 µM and 27.4 µM | 65.9 µM and 32.7 µM | > 100 µM and 43.3 µM | 84.1 µM and 23.4 µM | > 100 µM and 33.7 µM | > 100 µM and 34.3 µM |
| Nc1nc(Cl)cc(NCC2(O)CC(CO)C2)n1 (stereo not given) | > 100 µM | > 100 µM | > 100 µM | > 100 µM | > 100 µM | > 100 µM | > 100 µM | > 100 µM | > 100 µM | > 100 µM |  |  |  |  |  |  |
| CCCCNC1CCC2(SCCS2)c2[nH]c3ccccc3c21 (stereo not given) | > 100 µM | > 59.7 µM | > 100 µM | > 100 µM | > 43.1 µM | > 64.3 µM | 31.6 µM |  | > 100 µM | 45.1 µM |  |  |  |  |  |  |
| c1ccc(C2=NC3(CCCCC3)N(c3nc4ccccc4s3)N2)nc1 | 58.2 µM | 87.2 µM | > 100 µM | > 100 µM | 52.8 µM | 57.7 µM | > 100 µM | 42.6 µM | > 100 µM | 52.8 µM |  |  |  |  |  |  |
| O=C1C(N2CCCC2)=CC(=O)c2c(O)c(N3CCCC3)c(Cl)c(O)c21 | > 10 µM | > 10 µM | > 10 µM | > 10 µM | > 10 µM | > 10 µM | > 10 µM | > 10 µM | > 10 µM | > 10 µM |  |  |  |  |  |  |
| O=c1c2ccccc2oc2nc3n(c(=O)c12)CCCS3 | > 100 µM | > 100 µM | > 100 µM | > 100 µM | > 100 µM | > 100 µM | > 100 µM | > 100 µM | > 100 µM | > 100 µM |  |  |  |  |  |  |
| CCOc1cc2c(cc1O)/C(=N\N)C[C@@H]1[C@@H]2CC[C@]2(C)[C@@H](O)CC[C@@H]12 | 29.8 µM | > 100 µM | 39.2 µM | > 100 µM | > 100 µM | 36.2 µM | 38 µM | 99.5 µM | > 100 µM | > 68 µM |  |  |  |  |  |  |
| O=S(=O)(Oc1ccc2oc3ccccc3c2c1-c1c(OS(=O)(=O)C(F)(F)F)ccc2oc3ccccc3c12)C(F)(F)F | > 100 µM | > 100 µM | > 100 µM | > 100 µM | > 100 µM | > 100 µM | > 100 µM | > 100 µM | > 100 µM | > 100 µM |  |  |  |  |  |  |
| CCOC(=O)c1cn(-c2ccccc2)c(=S)n2c1nc1ccccc12 | > 100 µM | 65.3 µM | > 100 µM | > 100 µM | > 100 µM | > 100 µM | > 100 µM | > 100 µM | > 100 µM | > 100 µM |  |  |  |  |  |  |
| CCC(C)[C@H](NC(=O)[C@H](Cc1ccccc1)NC(=O)N(CC)c1ccccc1)C(=O)N[C@@H](CC(C)C)C(=O)OC (stereo not given in full) | > 100 µM | 66.7 µM | 61.5 µM | > 100 µM | 38 µM | > 100 µM | 93.8 µM | > 100 µM | > 100 µM | > 100 µM |  |  |  |  |  |  |
